This note sets out measurements from article PMC12257413, “Discovery of a Novel sp^3‑Rich M1 Positive Allosteric Modulators (PAMs) Chemotype via Scaffold Hopping” (ACS Medicinal Chemistry Letters, 2025).

Data set [1] in a line: Brain to plasma ratio (PK/PBL cassette). In kind it is in vivo. As to conditions: rat. The procedure: In vivo DMPK experimental:
Determination of brain to plasma ratio:
Sample Analysis: Concentrations in plasma and brain homogenates were quantified by liquid chromatography tandem mass spectrometry (LC-MS/MS). Whole brains were homogenized in 3 mL of 70:30 IPA:water in a mini bead beater for 3 min, and centrifuged at 3,500 g for 5 min. 5 uL of the supernatant was diluted in 15 uL of blank plasma for quantification of the analytes. Plasma samples were centrifuged at 3,500 g for 5 min. A standard curve was generated by diluting the analytes DMSO stocks with blank plasma to obtain a final concentration of 10,000 ng/ml followed by a serial dilution down to 0.5 ng/ml. […]
Plasma and brain tissue samples originating from in vivo studies were analyzed by electrospray ionization using an AB Sciex Q-TRAP 5500 (Foster City, CA) that was coupled to a Shimadzu LC-20AD pump (Columbia, MD) and a Leap Technologies CTC PAL auto-sampler (Carrboro, NC). […]
transitioning to 10% B over 0.05 min. […] All data were analyzed using AB Sciex Analyst 1.5.1 software.
Brain plasma concentration ratio (Kp) was calculated by dividing brain concentration by plasma concentration for each animal. Unbound brain to unbound plasma concentration ratio (Kp,uu) is calculated using the following formula: Kp,uu = (Brain ng/g x brain fu)/(plasma ng/ml x plasma fu).

A short description of data set [2]: Plasma protein binding by equilibrium dialysis, human plasma. In kind it is in vitro ADME. Conditions: fraction unbound in human plasma. On the procedure: for 2 seconds (excitation, 480 nm; emission, 530 nm), first add occurred by adding 20 µL of test compound to the cells, and the response was measured for 140 seconds. This is followed by second add; 10 µL (5X) of an EC20 concentration of ACh agonist was added to the cells, and the response of the cells was measured for 125 seconds. Immediately, the third add occurred by adding 12 ul assay buffer or 5X of an EC max concentration of ACh and the response of the cells was measured for 90 seconds. Assay buffer was added to the wells that incubated with compounds followed by EC20 concentration of ACh. […] Calcium fluorescence was recorded as fold over basal fluorescence and raw data were normalized to the maximal response to ACh agonist. Potency (EC50) and maximum response (% ACh Max) for compounds was determined using a four -parameter logist ical equation using GraphPad Prism (La Jolla, CA) or the Dotmatics software platform ( Woburn, MA) : […]
The protein binding of each compound was determined in plasma via equilibrium dialysis employing rapid equilibrium dialysis (RED) plates (ThermoFisher Scientific, Rochester, NY). […]
same manner as the plasma samples in the previously described plasma protein binding assay. Fraction unbound for both plasma and brain samples was determined using Equation 4. […]
(In equilibrium dialysis free small molecules cross a membrane that holds back macromolecules.)

Turning to `Cn1cc(-c2ccc(Cc3cc(C(=O)N[C@H]4CCCC[C@@H]4O)nn3C3CCCC3)cc2)cn1` [17k], the Kp in data set [1] came to 0.63. In data set [2], this molecule displayed a Human fuplasma of 0.01.
`Cn1cc(-c2ccc(Cc3cc(C(=O)N[C@H]4CCOC[C@@H]4O)nn3C3CCCC3)cc2)cn1` [17g]: in data set [1], the Kp was 0.12. The same molecule came in with a Human fuplasma in data set [2] of 0.08.

Usually Kp stands for tissue or fluid exposure divided by exposure in the circulation.
